Measurements taken from patent US11278541B2, “Low dose combination therapy for treatment of myeloproliferative neoplasms” (Incyte Corporation, priority 2017, dated 2022).
Where a name gives a salt, the structure may show the parent alone.

How the values were obtained:
Pim2 = target: T1, Pim2 (Homo sapiens, UniProt Q9P1W9); assay: Pim-2 kinase assay (Assay B); type: biochemical; settings: 1 mM ATP
T1 construct: purchased Invitrogen PV3649
Protocol: Pim-2 kinase assay—20 μL reactions were run in white 384 well polystyrene plates dotted with 0.8 μL compound/DMSO in the assay buffer (50 mM Tris, pH 7.5, 0.01% Tween-20, 5 mM MgCl2, 0.01% BSA, 5 mM DTT), containing 0.05 μM Fluorescein-labeled CREBtide peptide substrate (Invitrogen PV3508), 1 mM ATP, and 1 nM enzyme (Invitrogen PV3649) for 2 h at 25° C. Reactions were stopped by addition of 10 μL TR-FRET Dilution Buffer (Invitrogen PV3574) with 30 mM EDTA and 1.5 nM LanthaScreen Tb-CREB pSer133 antibody (Invitrogen PV3566). After 30 min. incubation at room temperature, plates were read on a PHERAstar FS plate reader (BMG Labtech).

Pim1 = target: T2, Pim1 (Homo sapiens, UniProt P11309); assay: Pim-1 kinase assay (Assay B); type: biochemical; settings: 1 mM ATP
T2 construct: purchased Invitrogen PV3503
Protocol: Pim-1 and Pim-3 kinase assays—20 μL reactions were run in white 384 well polystyrene plates dotted with 0.8 μL compound/DMSO in the assay buffer (50 mM Tris, pH 7.5, 0.01% Tween-20, 5 mM MgCl2, 0.01% BSA, 5 mM DTT), containing 0.05 μM Biotin-labeled BAD peptide substrate (AnaSpec 62269), 1 mM ATP, and 2.5 pM (Pim-1, Invitrogen PV3503) or 1.25 pM (Pim-3, Millipore 14-738) enzyme for 1 h at 25° C. Reactions were stopped by addition of 10 μL STOP Buffer (150 mM Tris, pH=7.5, 150 mM NaCl, 75 mM EDTA, 0.01% Tween-20, 0.3% BSA) supplemented with Phospho-Bad (Ser112) Antibody (Cell Signaling 9291) diluted 666-fold, and Streptavidin donor beads (PerkinElmer 6760002) along with Protein-A acceptor beads (PerkinElmer 6760137) at 15 μg/mL each. Supplementation of the STOP buffer with beads and stopping the reactions were done under reduced light. Prior to the stopping reactions STOP buffer with beads was pre-incubated for 1 h in the dark at room temperature. After stopping the reactions, plates were incubated for 1 h in the dark at room temperature before reading on a PHERAstar FS plate reader (BMG Labtech) under reduced light.

Pim3 = Pim3 (Homo sapiens, UniProt Q86V86); assay: Pim-3 kinase assay (Assay B); type: biochemical; settings: 1 mM ATP
[1] = tested on: Peripheral blood mononuclear cells from an MPN patient (PV, JAK2-V617F+); assay: Epo-independent erythroid colony formation; type: cell-based, human; settings: Compound 1 alone, colonies scored after 12 days
Excerpt: Epo-independent erythroid colonies were scored after 12 days. […] The lower measured % growth indicates synergy.

[2] = tested on: pBAD in KMS12BM cell line; assay: pBAD inhibition by patient plasma samples incubated ex vivo with KMS12BM cell line; type: in vivo, human; settings: KMS-12-BM, 192 h; 80 mg BID, cycle 1, day 8, time course
Protocol: Plasma samples from patients were incubated ex vivo with the KMS12BM cell line for 2.5 hours at 37° C. Whole cell lysates were prepared from the cells, and levels of pBAD were determined using an ELISA.

[3] = Conversion of Example 3 cell activity to protein-binding adjusted activity and human dose
[4] = Free fraction in media of the Example 3 assay; type: in vitro ADME; settings: cell assay media (Example 3 assay); media of Example 3 assay
Excerpt: The assay in Example 3 involved plating cells from blood in media. […] The serum free fraction and media free fractions of 7% and 58% can be used to convert the results in Example 3 to an human dose assuming a linear dose-response curve.

[5] = Protein binding in human serum (equilibrium dialysis); type: in vitro ADME; settings: 0.3 μM-10 μM
Protocol: For human, the average in vitro serum fraction unbound (fu) of 7.0%. For the protein binding determination, the Multi-Equilibrium Dialyzer System™ and diachema membranes from Harvard Apparatus (Holliston, Mass.) were utilized. Samples were protein precipitated, matrix matched and then centrifuged. The supernatant was transferred and analyzed using LC-MS/MS. The percent fraction unbound for in vitro samples was calculated using final peak area ratios in post-dialysis buffer divided by final peak area ratios in post-dialysis serum, with correction applied for volume shift.

T1 sequence (Q9P1W9 whole entry): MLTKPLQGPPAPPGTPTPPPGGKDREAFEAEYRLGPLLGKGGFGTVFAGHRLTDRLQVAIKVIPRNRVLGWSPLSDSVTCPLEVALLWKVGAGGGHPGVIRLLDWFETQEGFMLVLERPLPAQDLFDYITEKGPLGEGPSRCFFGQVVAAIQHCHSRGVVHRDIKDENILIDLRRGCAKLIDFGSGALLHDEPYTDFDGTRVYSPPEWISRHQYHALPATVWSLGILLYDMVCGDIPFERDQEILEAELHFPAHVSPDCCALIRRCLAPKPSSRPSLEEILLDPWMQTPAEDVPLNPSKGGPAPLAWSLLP
T2 sequence (P11309 whole entry): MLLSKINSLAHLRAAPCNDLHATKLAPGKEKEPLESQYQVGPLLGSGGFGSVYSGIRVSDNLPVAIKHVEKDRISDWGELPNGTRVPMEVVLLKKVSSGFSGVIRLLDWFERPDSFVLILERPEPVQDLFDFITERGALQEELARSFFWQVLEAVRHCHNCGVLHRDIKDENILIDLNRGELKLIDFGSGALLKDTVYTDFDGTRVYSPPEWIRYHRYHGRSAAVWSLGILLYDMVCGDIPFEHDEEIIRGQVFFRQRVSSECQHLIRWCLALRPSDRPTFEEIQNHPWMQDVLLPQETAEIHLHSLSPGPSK

IC50 (Pim2) | IC50 (Pim1) | IC50 (Pim3) | shift in activity (media to serum protein binding) ([3]; (58%)/7%) | fraction unbound [4] | protein binding [5] | fraction unbound ([5]; read-out: average in vitro serum fraction unbound (fu)) | SMILES | neoplastic erythroid colony formation of JAK2-V617F(+) MPN hematopoietic progenitors [1] | inhibition at 80 mg [2] | inhibition level corresponding to protein-binding adjusted activity ([3]; adjusted activity 8.3 nM) | inhibition level corresponding to protein-binding adjusted activity ([3]; adjusted activity 41 nM) | Protein-binding adjusted activity ([3]; cell activity Example 3: 1 nM) | Protein-binding adjusted activity ([3]; cell activity Example 3: 5 nM) | Protein-binding adjusted activity ([3]; cell activity Example 3: 20 nM)
< 35 nM | < 35 nM | < 35 nM |  |  |  |  | C[C@H]1CN(c2c(NC(=O)c3ccc(F)c(-c4c(F)cccc4F)n3)cnc3c2CC[C@H]3O)C[C@@H](N)[C@@H]1O [dihydrochloric acid salt of Compound 1] |  |  |  |  |  |  | 
≤ 100 nM | ≤ 100 nM | ≤ 100 nM | 8.3 fold | 0.58 | high protein binding | 0.07 | C[C@H]1CN(c2c(NC(=O)c3ccc(F)c(-c4c(F)cccc4F)n3)cnc3c2CC[C@H]3O)C[C@@H](N)[C@@H]1O [Compound 1, N-{(7R)-4-[(3R,4R,5S)-3-Amino-4-hydroxy-5-methylpiperidin-1-yl]-7-hydroxy-6,7-dihydro-5H-cyclopenta[b]pyridin-3-yl}-6-(2,6-difluorophenyl)-5-fluoropyridine-2-carboxamide] | Inhibition | 76% | IC5.7 | IC23 | 8.3 nM | 41 nM | 166 nM
< 35 nM | < 35 nM | < 35 nM |  |  |  |  | C[C@H]1CN(c2c(NC(=O)c3ccc(F)c(-c4c(F)cccc4F)n3)cnc3c2CC[C@H]3O)C[C@@H](N)[C@@H]1O [phosphoric acid salt of Compound 1] |  |  |  |  |  |  | 
